Data taken from paper PMC7008064 (Drug Design, Development and Therapy, 2020).

Legend:
HDAC1 = HDAC1 (Homo sapiens, UniProt Q13547); test: HDAC1 inhibitory activity; type: biochemical
[1] = system: neuroblastoma (SH-SY5Y) cell line; test: cells; type: cell-based; settings: for IC50: Homo sapiens, SH-SY5Y, 48 h, read-out: IC50 SH-SY5Y
HDAC2 = HDAC2 (Homo sapiens, UniProt Q92769); test: HDAC2 inhibitory activity; type: biochemical
[2] = system: colorectal adenocarcinoma (HT-29) cell line; test: cells; type: cell-based; settings: for IC50: Homo sapiens, HT-29, 48 h, read-out: IC50 HT-29
[3] = HDAC1 IC50 (as printed in docking Table 3), unrounded values repeated in Table 3
[4] = IC50 HDAC1, mean ± S.E. of three independent experiments
[5] = ratio of IC50 values vs Gefitinib
[6] = HDAC2 IC50 (as printed in docking Table 4), unrounded values repeated in Table 4
[7] = IC50 HDAC2, mean ± S.E. of three independent experiments

HDAC2, sequence (Q92769 whole entry): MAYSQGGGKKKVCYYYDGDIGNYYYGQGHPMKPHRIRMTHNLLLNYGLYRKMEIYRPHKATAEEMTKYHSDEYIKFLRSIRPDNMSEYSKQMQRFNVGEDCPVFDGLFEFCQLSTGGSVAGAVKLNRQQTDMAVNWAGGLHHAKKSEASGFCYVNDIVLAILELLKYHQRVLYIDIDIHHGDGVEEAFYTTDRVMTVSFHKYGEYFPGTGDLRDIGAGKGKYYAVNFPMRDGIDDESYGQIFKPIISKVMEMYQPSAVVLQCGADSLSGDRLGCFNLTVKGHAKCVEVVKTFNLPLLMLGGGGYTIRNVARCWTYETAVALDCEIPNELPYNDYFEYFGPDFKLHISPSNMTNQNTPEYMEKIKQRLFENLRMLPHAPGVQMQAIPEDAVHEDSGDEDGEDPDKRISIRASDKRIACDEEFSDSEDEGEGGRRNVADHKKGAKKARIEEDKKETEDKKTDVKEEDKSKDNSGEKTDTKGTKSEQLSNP
HDAC1, sequence (Q13547 whole entry): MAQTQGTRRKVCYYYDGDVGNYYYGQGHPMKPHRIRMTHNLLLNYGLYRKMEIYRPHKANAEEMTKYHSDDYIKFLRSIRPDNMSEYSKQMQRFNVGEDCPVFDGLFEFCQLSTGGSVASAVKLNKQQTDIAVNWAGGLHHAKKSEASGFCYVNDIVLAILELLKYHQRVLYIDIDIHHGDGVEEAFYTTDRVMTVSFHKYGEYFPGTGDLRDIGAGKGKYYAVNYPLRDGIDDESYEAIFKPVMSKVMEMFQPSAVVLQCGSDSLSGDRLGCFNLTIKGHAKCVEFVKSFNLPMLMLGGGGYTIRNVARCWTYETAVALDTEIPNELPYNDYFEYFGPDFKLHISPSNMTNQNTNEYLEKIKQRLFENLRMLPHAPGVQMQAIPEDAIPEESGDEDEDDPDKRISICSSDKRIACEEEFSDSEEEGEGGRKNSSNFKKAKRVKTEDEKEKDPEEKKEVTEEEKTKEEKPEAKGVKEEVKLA

Row | Compound | IC50 (HDAC1; [3]) [nM] | IC50 (HDAC1; [4]) [nM] | IC50 [1] [nM] | fold enhanced efficiency than reference drug Gefitinib against SH-SY5Y cells [1, 5] [fold] | IC50 (HDAC2; [6]) [nM] | IC50 (HDAC2; [7]) [nM] | IC50 [2] [nM] | times more potent than Gefitinib toward HT-29 cells [2, 5] [times] | fold worsening of effectiveness against HDAC1 on shifting hydrazide ZBG from para (7a) to meta (8b) (HDAC1; 8b relative to 7a) [fold]
1 | Cc1nc(C)c(C(=O)Nc2ccc(C(=O)NN)cc2)nc1C [Compound 7a, N-(4-(Hydrazinecarbonyl)phenyl)-3,5,6-Trimethylpyrazine-2-Carboxamide] | 114 | 114.3 ± 0.44 | 1600 ± 40 | 4.7 | 53.7 | 53.7 ± 0.05 | 15100 ± 430 | – | –
2 | Cc1nc(C)c(C(=O)Nc2ccc(CC(=O)NO)cc2)nc1C [Compound 7b, N-(4-(2-(Hydroxyamino)-2-Oxoethyl)phenyl)-3,5,6-Trimethylpyrazine-2-Carboxamide] | 2430 | 2434.7 ± 1.25 | 67000 ± 1910 | – | 132 | 132.3 ± 0.12 | 4570 ± 130 | – | –
3 | Cc1nc(C)c(C(=O)Nc2ccc(CC(=O)NN)cc2)nc1C [Compound 7c, N-(4-(2-Hydrazinyl-2-Oxoethyl)phenyl)-3,5,6-Trimethylpyrazine-2-Carboxamide] | 264 | 263.5 ± 1.27 | 43400 ± 1210 | – | 205 | 205.4 ± 0.43 | 6110 ± 170 | – | –
4 | Cc1nc(C)c(C(=O)Nc2cccc(C(=O)NO)c2)nc1C [Compound 8a, N-(3-(Hydroxycarbamoyl)phenyl)-3,5,6-Trimethylpyrazine-2-Carboxamide] | 468 | – | 4270 ± 120 | – | 169 | 168.8 ± 0.13 | 1960 ± 50 | 2.5 | –
5 | Cc1nc(C)c(C(=O)Nc2cccc(C(=O)NN)c2)nc1C [Compound 8b, N-(3-(Hydrazinecarbonyl)phenyl)-3,5,6-Trimethylpyrazine-2-Carboxamide] | 1800 | 1800.1 ± 0.45 | 28500 ± 800 | – | 113 | 112.9 ± 0.09 | 3250 ± 90 | – | 15.7
